Assay [1] has as its system CAG myeloma cells. The assay is described as follows: Cell spreading / attachment assay of CAG myeloma cells on FN or VCAM-1. It is filed as cell-based, human. As to conditions: on VCAM-1; 0.3 μM peptide. The procedure: (§1) Nitrocellulose-coated slides were coated for 2 hr at 37° C. with 40 μg/ml FN (kindly provided by Dr. Donna Peters, University of Wisconsin-Madison) or 5 μg/ml recombinant VCAM-1/Fc chimera (R&D Systems) in calcium and magnesium-free PBS (CMF-PBS; 135 mM NaCl, 2.7 mM KCl, 10.2 mM Na2HPO4-7H20 and 1.75 mM KH2PO4, pH7.4). Slides were blocked for 1 hr at 37° C. with RPMI 1640 containing 1% heat-denatured BSA (plating medium). Cells in plating medium were allowed to attach and spread for 2.5 hr at 37° C. Slides were fixed in 4% EM grade paraformaldehyde (Electron Microscopy Sciences) in CMF-PBS and labeled for 30 min in 0.13 μM rhodamine phalloidin (Invitrogen) in CMF-PBS. Coverslips were mounted in non-fluorescing mounting medium (Immumount; Thermo Shandon) and allowed to dry. All images were acquired with a Nikon Microphot FX microscope using a 20× objective (Nikon; Ex 541-551, DM 580, Barrier 590), Photometric CoolSnap ES camera, and version 7.7.3.0 Metamorph© Imaging software (Molecular Devices). All images represent results from triplicate wells and at least three independent experiments.

The target of another assay is T1, VLA-4 (Homo sapiens, UniProt P05556+P13612).
T1 construct: the α4-integrin (VLA-4), which is expressed on myeloma cells; endogenous in cells; host or cells: CAG human myeloma cells (HPSE^low), whole-cell lysate
The assay is described as follows: GST pull down assay: capture of VLA-4 by GST-S1ED. The settings on record: HPSE^low cell lysates; peptide 30 M [sic]. It is filed as binding. The procedure:
(§2) FIGS. 6A-G. Peptides derived from the active site in Sdc1 activate or inhibit adhesion and invasion. (FIG. 6A) Transwell migration assays towards FN (for 16 hrs) were performed for HPSE low or high cells in the presence of 0, 0.3, 3, and 30 μM of S1ED^210-240. Cells migrating to the bottom side of the filter were counted from five random images for each treatment. (FIG. 6B) The sequence of S1ED210-240 is shown (SEQ ID NO: 3), as well as […] truncation mutants of the peptide (SEQ ID NOs: 5, 2, 4 and 7). Amino acids shown in red appear necessary for the spreading and invasive activity. (FIG. 6C) Images of HPSE^low and HPSE^high cells plated on FN for 2 hr. (FIG. 6D) HPSE^low cells were treated with 0, 0.3, 3, 10 and 30 μM of S1ED^210-236, S1ED^210-233, or S1ED^214-240, plated on FN for 2 hr, fixed and stained with fluorescent phalloidin. Cells from five random images were quantified for cell attachment and cell spreading. (FIG. 6E) HPSE^high cells were treated with 0, 3, 10, and 30 μM of S1ED^210-236, S1ED^210-233, and S1ED^214-240, plated on FN for 2 hr, then fixed, imaged and quantified as in FIG. 6D. (FIG. 6F) Transwell migration assays towards FN (for 16 hr) were performed for HPSE^low or HPSE^high cells in the presence of 30 μM of S1ED^210-236, S1ED^210-233, S1ED^214-240 and Vandetanib. (FIG. 6G) HPSE^low cell lysates were incubated overnight with glutathione beads coated with GST or GST-S1ED in the absence or presence of 30 μM of S1ED^210-236, S1ED^210-233, and S1ED^214-240. Capture of VLA-4 or VEGFR2 was detected by immunoblotting. Sequences in FIG. 6B are 210-240 (SEQ ID NO: 3), 210-236 (SEQ ID NO: 2), 210-233 (SEQ ID NO: 4), 214-240 (SEQ ID NO: 5) and 214-236 (SEQ ID NO: 7).
(§3) CAG cells were washed with CMF-PBS and then lysed for 20 min on ice in lysis buffer. Cell debris was removed by centrifugation at 13000 rpm for 20 min at 4° C. Whole cell lysates were then incubated at 4° C. overnight with either 3 μM GST or 3 μM GST-S1ED in the absence or presence of 1 μM, 3 μM, and 10 μM S1ED^210-240 peptide. GST or GST-S1ED was captured by addition of glutathione Sepharose and the beads were washed with ice-cold lysis buffer and CMF-PBS, prior to addition of SDS-PAGE sample buffer and analyszed by electrophoresis and western blotting as described previously.

The target of the next assay is T2, VEGFR2 (Homo sapiens, UniProt P35968).
T2 construct: endogenous in cells; host or cells: CAG human myeloma cells (HPSE^low = empty vector; HPSE^high = human HPSE cDNA)
Put plainly: GST pull down assay: capture of VEGFR2 by GST-S1ED. It is filed as binding. As to conditions: HPSE^low cell lysates; peptide 30 M [sic]. The procedure:
as §2, §3

For assay [2], the system named is HMEC-1 cells. The assay is described as follows: Attachment and spreading of HMEC-1 cells on IIICS. It is filed as cell-based. The settings on record: plated on IIICS; 30 μM peptides, 125 μg/ml SST0001, 10 μg/ml MMP9 blocking antibody. The protocol:
(§4) FIGS. 8A-H. HPSE mediated the Sdc1-coupled VEGFR2 complex in endothelial cells induces angiogenesis. (FIG. 8A) Lysates from HPSE^low, HPSE^high and HMEC-1 cells are probed by immunoblotting for expression of HPSE. (FIG. 8B) HMEC-1 cells were seeded at equal density and grown in serum-free media for 24 hr in the absence or presence of 125 μg/ml of the HPSE inhibitor SST0001. After 24 hr, conditioned media were harvested, and the level of shed Sdc1 in the conditioned medium from each condition was determined by immunoblotting. (FIG. 8C) HMEC-1 cell lysate was incubated overnight with glutathione beads coated with GST or GST-S1ED. Capture of VLA-4 or VEGFR2 was detected by immunoblotting. (FIG. 8D) HMEC-1 cells were plated on IIICS for 3 hr and double stained for VLA-4 and Sdc1, VEGFR2 and Sdc1, or VLA-4 and VEGFR2. (FIG. 8E) HMEC-1 cells were treated with DMSO, VLA-4 blocking antibody P1H4, β1-integrin blocking antibody mAb13, 10 μg/ml MMP9 blocking antibody, 125 μg/ml HPSE inhibitor SST0001, Vandetanib, VEGFR2 blocking antibody, 30 μM S1ED^210-233 or 30 μM S1ED^214-240 and then plated on IIICS. Images were taken from random field with 200× magnification for counting attached and spread cells. (FIG. 8F) HMEC-1 cells were plated on IIICS in the presence of 10 μM of S1ED^210-236, S1ED^210-233, S1ED^215-240, and S1ED^214-240. […]

Assay [3] has as its system HMEC-1 cells. The assay is described as follows: Transwell migration / invasion assay of HMEC-1 cells. It is filed as cell-based. As to conditions: 16 hr. The protocol: as §4, with “S1ED^214-240. Lysates were probed on immunoblots with antibodies against pY^1175 VEGFR2 and VEGFR2. (FIG. 8G) Transwell migration assays towards IIICS (for 16 hr) were performed for HMEC-1 cells in the presence of P1H4, SST0001, Anti-MMP9, Vandetanib, S1ED^210-236, S1ED^210-233, and S1ED^214-240. Images were taken from random field with 200× magnification for counting migrated cells. (FIG. 8H) A 96-well plate coated with 50 μl Matrigel containing 100 μg/ml IIICS per well was solidified at 37° C. for 2 hrs.” for “S1ED^214-240.”
The bottom chambers of Transwell filter chambers (8 μm pores; Corning) were coated with 40 μg/ml of FN. […] Cells from at least five random fields were counted.

Assay [4] relates to HMEC-1 cells. Put plainly: In vitro tube formation assay of HMEC-1 cells on Matrigel. It is filed as cell-based. As to conditions: 24 hrs, 10 μM peptides. The protocol: FIGS. 8A-H. HPSE mediated the Sdc1-coupled VEGFR2 complex in endothelial cells induces angiogenesis. (FIG. 8A) Lysates from HPSE^low, HPSE^high and HMEC-1 cells are probed by immunoblotting for expression of HPSE. (FIG. 8B) HMEC-1 cells were seeded at equal density and grown in serum-free media for 24 hr in the absence or presence of 125 μg/ml of the HPSE inhibitor SST0001. After 24 hr, conditioned media were harvested, and the level of shed Sdc1 in the conditioned medium from each condition was determined by immunoblotting. (FIG. 8C) HMEC-1 cell lysate was incubated overnight with glutathione beads coated with GST or GST-S1ED. Capture of VLA-4 or VEGFR2 was detected by immunoblotting. (FIG. 8D) HMEC-1 cells were plated on IIICS for 3 hr and double stained for VLA-4 and Sdc1, VEGFR2 and Sdc1, or VLA-4 and VEGFR2. (FIG. 8E) HMEC-1 cells were treated with DMSO, VLA-4 blocking antibody P1H4, β1-integrin blocking antibody mAb13, 10 μg/ml MMP9 blocking antibody, 125 μg/ml HPSE inhibitor SST0001, Vandetanib, VEGFR2 blocking antibody, 30 μM S1ED^210-233 or 30 μM S1ED^214-240 and then plated on IIICS. Images were taken from random field with 200× magnification for counting attached and spread cells. (FIG. 8F) HMEC-1 cells were plated on IIICS in the presence of 10 μM of S1ED^210-236, S1ED^210-233, S1ED^215-240, and S1ED^214-240. Lysates were probed on immunoblots with antibodies against pY^1175 VEGFR2 and VEGFR2. (FIG. 8G) Transwell migration assays towards IIICS (for 16 hr) were performed for HMEC-1 cells in the presence of P1H4, SST0001, Anti-MMP9, Vandetanib, S1ED^210-236, S1ED^210-233, and S1ED^214-240. Images were taken from random field with 200× magnification for counting migrated cells. (FIG. 8H) A 96-well plate coated with 50 μl Matrigel containing 100 μg/ml IIICS per well was solidified at 37° C. for 2 hrs. HMEC-1 cells (2.5×10^4 cells/well) were seeded into the plate and cultured in media containing VEGF, SST0001, 10 μM of S1ED^210-236, S1ED^210-233, S1ED^215-240, and S1ED^214-240 for 24 hrs. Enclosed capillary networks of tubes were taken from random field with 200× magnification.

Assay [5] relates to CAG myeloma cells. The assay is described as follows: Cell spreading / attachment assay of CAG myeloma cells on FN or VCAM-1. It is filed as cell-based, human. The settings on record: on FN, 2 hr.
For assay [6], the system named is P3x63Ag8 mouse myeloma cells. Put plainly: Adhesion of P3x63Ag8 myeloma cells to FN. It is filed as cell-based. As to conditions: 30 uM peptide, 2.5 hr. The protocol: (§5) FIG. 7A-B. S1ED^214-236, specific for VEGFR2 coupling to VLA-4, blocks myeloma cell invasion but not adhesion. (FIG. 7A) P3x63Ag8 mouse myeloma cells are plating on the VLA-4 ligand FN in the presence or absence of 30 uM S1ED^210-233 (SEQ ID No: 4) or S1ED^214-236 (SEQ ID No: 7) for 2.5 hr. (FIG. 7B) P3x63Ag8 myeloma cells are plated on FN-coated filters in the presence of HPSE inhibitor OGT2115, VLA-4 blocking antibody P1H4, VEGFR2 inhibitor Vandetanib or S1ED^210-233 or S1ED^214-236 and allowed to migrate through the filter for 16 hr. Small black dots are the pores in the filter.
as §1, with “All images were acquired with a Nikon Microphot FX microscope using a 20× objective (Nikon; Ex 541-551, DM 580, Barrier 590), Photometric CoolSnap ES camera, and version 7.7.3.0 Metamorph© Imaging software (Molecular Devices). All images represent results from triplicate wells and at least three independent experiments.” left out

For assay [7], the system named is P3x63Ag8 mouse myeloma cells. The assay is described as follows: Invasion of P3x63Ag8 myeloma cells through FN-coated filters. It is filed as cell-based. The settings on record: 16 hr. The protocol:
as §5
The bottom chambers of Transwell filter chambers (8 μm pores; Corning) were coated with 40 μg/ml of FN. Cells (5×10^5 in 0.2 ml plating medium) were placed in the upper chamber and incubated for 16 hr at 37° C. in the CO2 incubator. After incubation, cells in the upper chamber were removed and cells on the bottom side of the filter were fixed in 4% paraformaldehyde (PFA) and stained with 0.1% Crystal Violet before imaging. Cells from at least five random fields were counted.

T1 sequence (P13612 34-1032): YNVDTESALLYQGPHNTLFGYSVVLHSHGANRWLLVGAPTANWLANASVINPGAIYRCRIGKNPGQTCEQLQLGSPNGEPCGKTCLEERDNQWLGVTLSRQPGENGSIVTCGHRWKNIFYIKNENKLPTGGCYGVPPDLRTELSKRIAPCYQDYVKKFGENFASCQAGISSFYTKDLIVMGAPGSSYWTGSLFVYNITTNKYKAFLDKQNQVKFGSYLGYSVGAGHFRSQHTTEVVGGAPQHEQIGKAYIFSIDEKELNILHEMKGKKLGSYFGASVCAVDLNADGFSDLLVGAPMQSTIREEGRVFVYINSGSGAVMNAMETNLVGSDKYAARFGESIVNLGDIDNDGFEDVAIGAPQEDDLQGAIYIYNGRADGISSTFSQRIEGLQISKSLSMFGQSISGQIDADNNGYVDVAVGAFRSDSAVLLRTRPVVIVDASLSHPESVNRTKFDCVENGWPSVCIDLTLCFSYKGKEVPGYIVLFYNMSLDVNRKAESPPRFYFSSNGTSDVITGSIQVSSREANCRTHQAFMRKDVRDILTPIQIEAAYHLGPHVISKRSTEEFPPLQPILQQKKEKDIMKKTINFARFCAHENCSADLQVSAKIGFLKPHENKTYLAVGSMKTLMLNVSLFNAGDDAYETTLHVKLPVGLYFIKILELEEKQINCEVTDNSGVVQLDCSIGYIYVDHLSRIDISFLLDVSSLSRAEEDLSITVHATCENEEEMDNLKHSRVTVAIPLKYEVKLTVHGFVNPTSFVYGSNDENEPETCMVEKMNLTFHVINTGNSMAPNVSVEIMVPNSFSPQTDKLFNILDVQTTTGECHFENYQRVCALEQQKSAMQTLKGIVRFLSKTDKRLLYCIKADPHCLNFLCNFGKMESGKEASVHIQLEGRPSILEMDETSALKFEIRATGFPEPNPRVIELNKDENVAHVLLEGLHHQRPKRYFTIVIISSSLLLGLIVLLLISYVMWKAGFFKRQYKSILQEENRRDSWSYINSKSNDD
T1 sequence (P05556 21-798): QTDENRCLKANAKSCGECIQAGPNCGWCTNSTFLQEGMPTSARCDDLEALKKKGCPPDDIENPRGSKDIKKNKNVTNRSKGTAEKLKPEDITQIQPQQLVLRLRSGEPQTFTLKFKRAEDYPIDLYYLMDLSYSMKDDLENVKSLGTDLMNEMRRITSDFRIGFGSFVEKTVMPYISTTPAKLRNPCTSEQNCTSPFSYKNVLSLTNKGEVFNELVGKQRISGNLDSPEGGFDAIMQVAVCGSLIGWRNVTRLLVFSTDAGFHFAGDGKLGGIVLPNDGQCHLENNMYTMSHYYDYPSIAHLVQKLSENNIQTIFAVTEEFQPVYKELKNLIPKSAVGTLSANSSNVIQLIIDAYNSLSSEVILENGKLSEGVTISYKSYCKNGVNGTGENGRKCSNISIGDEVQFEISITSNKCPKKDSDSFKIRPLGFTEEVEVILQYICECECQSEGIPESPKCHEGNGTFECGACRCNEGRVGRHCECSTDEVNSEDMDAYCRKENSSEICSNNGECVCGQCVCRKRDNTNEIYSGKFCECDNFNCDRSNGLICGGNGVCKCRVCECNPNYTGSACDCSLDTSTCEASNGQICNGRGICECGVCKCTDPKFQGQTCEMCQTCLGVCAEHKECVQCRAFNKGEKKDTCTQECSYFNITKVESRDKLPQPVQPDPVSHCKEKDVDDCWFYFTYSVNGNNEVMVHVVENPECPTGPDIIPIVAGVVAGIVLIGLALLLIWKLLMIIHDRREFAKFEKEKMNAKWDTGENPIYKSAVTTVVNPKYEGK
T2 sequence (P35968 20-1356): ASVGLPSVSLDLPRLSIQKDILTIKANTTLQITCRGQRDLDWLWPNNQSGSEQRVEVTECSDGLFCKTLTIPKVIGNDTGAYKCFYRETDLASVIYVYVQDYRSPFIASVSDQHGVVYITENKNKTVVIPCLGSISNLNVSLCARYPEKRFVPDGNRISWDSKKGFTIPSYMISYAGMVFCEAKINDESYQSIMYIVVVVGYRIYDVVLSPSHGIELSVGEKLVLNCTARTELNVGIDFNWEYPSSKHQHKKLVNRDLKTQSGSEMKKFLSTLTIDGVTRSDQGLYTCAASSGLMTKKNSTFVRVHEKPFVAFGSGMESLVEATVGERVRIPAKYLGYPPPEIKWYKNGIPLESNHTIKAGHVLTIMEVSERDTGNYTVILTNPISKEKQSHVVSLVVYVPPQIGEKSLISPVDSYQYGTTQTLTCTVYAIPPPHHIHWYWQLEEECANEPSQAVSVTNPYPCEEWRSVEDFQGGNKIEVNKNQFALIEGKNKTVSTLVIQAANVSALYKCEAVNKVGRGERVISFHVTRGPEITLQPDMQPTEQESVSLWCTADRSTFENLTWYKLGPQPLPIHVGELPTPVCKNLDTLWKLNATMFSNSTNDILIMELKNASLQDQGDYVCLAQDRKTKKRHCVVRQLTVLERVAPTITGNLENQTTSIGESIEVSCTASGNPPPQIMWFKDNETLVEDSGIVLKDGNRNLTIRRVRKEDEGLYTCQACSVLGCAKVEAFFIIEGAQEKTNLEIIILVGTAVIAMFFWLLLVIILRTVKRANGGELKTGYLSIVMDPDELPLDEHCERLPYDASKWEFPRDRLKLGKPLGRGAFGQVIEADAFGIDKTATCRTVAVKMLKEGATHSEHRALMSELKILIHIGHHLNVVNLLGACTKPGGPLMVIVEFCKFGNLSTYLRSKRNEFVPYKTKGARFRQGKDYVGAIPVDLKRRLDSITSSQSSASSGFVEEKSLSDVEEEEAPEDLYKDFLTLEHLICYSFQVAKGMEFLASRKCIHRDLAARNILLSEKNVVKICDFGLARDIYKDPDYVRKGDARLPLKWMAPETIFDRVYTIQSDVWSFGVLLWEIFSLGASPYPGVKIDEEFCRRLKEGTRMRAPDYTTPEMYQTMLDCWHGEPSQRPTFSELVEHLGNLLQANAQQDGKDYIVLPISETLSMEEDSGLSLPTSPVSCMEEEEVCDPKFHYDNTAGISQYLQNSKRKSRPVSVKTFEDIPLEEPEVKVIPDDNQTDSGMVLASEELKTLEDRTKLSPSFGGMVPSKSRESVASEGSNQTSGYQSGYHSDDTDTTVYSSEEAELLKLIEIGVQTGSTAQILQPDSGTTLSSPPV

With “S1ED^214-240: syndecan-1 ectodomain peptide, residues 214-240 (SEQ ID NO: 5) (ETSGENTAVVAVEPDRRNQSPVDQGAT)”, the “induction of HPSE^low cell spreading by S1ED peptides” value in the assay on CAG myeloma cells [1] is listed as “do not”. Moreover, in the assay with VLA-4, the “competition for capture of VLA-4 by GST-S1ED” value is “only competes for capture of VEGFR2”. Also, the “competition for capture of VEGFR2 by GST-S1ED” value with VEGFR2 is given as “only competes for capture of VEGFR2”. Further, the “VLA-4 dependent spreading of HMEC-1 cells” value in the assay on HMEC-1 cells [2] is given as “prevented”. Besides, in the assay with HMEC-1 cells [3], the “invasion of HMEC-1 cells” value is given as “all block invasion”. For the same substance, the “tube formation by HMEC-1 cells” value in the assay with HMEC-1 cells [4] was “blocks tube formation”. The “HPSE^low cell spreading” value with CAG myeloma cells [5] (0, 0.3, 3, 10 and 30 μM peptide) is “does not cause cell spreading”. In the assay on CAG myeloma cells [5] (0, 3, 10 and 30 μM peptide), the “HPSE^high cell adhesion” value is reported as “has no effect on cell adhesion” and the “HPSE^high cell spreading” value is “blocks the spreading of HPSE^high cells”. Moreover, in the assay with CAG myeloma cells [5] (high concentrations (30 μM)), the “HPSE^low cell adhesion” value is listed as “does not cause cell spreading or block adhesion”.

Take “S1ED^214-236: syndecan-1 ectodomain peptide, residues 214-236 (SEQ ID NO: 7) (ETSGENTAVVAVEPDRRNQSPVD)”: the “adhesion of P3X cells to FN” value in assay [6] is listed as “without effect”. For the same substance, in assay [7], the “invasion / migration of P3X cells through FN-coated filters” value is given as “blocked by either peptide”.
